# Test results published in US5777190A (priority 1997, dated 1998).
# Assays:
# [1] = target: ferredoxin NADP oxidoreductase (FNR, EC 1.18.1.2) from spinach (Spinacia oleracea, UniProt P00455)
# [2] = system: rats; conditions: rat, in vivo; cited from earlier work
# ferredoxin NADP oxidoreductase (FNR, EC 1.18.1.2) from spinach, sequence (P00455 56-369): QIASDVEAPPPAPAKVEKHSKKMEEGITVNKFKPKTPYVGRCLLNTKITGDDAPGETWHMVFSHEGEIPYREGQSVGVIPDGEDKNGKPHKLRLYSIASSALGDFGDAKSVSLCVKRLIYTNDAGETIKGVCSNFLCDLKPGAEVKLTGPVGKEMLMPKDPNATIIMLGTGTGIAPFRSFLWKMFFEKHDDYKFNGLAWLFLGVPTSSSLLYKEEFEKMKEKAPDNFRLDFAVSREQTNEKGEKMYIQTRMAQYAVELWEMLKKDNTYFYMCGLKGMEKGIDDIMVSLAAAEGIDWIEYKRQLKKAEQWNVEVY
smiles,measurement,setting,value
O=[N+]([O-])c1ccccc1 [nitrobenzene],reduction by FNR under aerobic conditions,[1],not reduced
same,stoichiometry of transformation by FNR,[1],One mole of PHA is formed for every mole of nitrobenzene
same,reduction by FNR under nitrogen (product formed),[1]; pH 8.5,transformation of nitrobenzene to PHA by FNR
same,LD50,[2],640 mg/kg
